This is an account of results in patent publication US20110104159A1, “COMPOSITIONS AND METHODS FOR TREATING, CONTROLLING, REDUCING, AMELIORATING, OR PREVENTING ALLERGY” (priority 2006, published 2011).

Values joined by “and” are separate entries in the source; they are usually repeats but may differ in a detail not shown here. Equal entries are not always repeated.

For test [1], the system named is rabbit paracentesis model. Put plainly: Pupillary diameter measurement, rabbit paracentesis model. Format: in vivo. To be noted: individual eye; for Pupillary diameter T2: −5 min: 5 min before first paracentesis; for Pupillary diameter T3: +115 min: 5 min before second paracentesis; for Pupillary diameter Δ(T3 − T1): +115 min minus −180 min; for Pupillary diameter T1: −180 min: basal. The procedure:
(§1) Each rabbit was placed in a restraint device and tagged with the alphanumeric code. The formulations were instilled (50 μl) into the conjunctival sac of both eyes 180, 120, 90 and 30 min before the first paracentesis; then 15, 30, 90 min after the first paracentesis. To perform the first paracentesis the animals were anaesthetized by intravenous injection of 5 mg/kg Zoletil® (Virbac; 2.5 mg/kg tiletamine HCl and 2.5 mg/kg zolazepam HCl) and one drop of local anesthetic (Novesina®, Novartis) was administered to the eye. Anterior chamber paracentesis was performed with a 26 G needle attached to a tuberculin syringe; the needle was introduced into the anterior chamber through the cornea, taking care not to damage the tissues. Two hours after the first paracentesis, the animals were sacrificed with 0.4 ml Tanax® (Intervet International B.V.) and the second paracentesis was performed. About 100 μl of aqueous humor were removed at the second paracentesis. Aqueous humor was immediately split in four aliquots and stored at −80° C. until analysis. Then both eyes were enucleated and the iris-ciliary body was carefully excised, placed in polypropylene tubes, and stored at −80° C. until analysis.
The pupillary diameter of both eyes was measured with a Castroviejo caliper 180 min and 5 min before the first paracentesis and 5 min before the second paracentesis.

The test system of test [2] is rabbit paracentesis model. Kind of test: Clinical evaluation by slit lamp (clinical score), rabbit paracentesis model. Type of test: in vivo. Further details: key to Clinical Score −180 min / Clinical Score −5 min / Clinical Score +115 min: 0: normal; 1: discrete dilatation of iris and conjunctival vessels; 2: moderate dilatation of iris and conjunctival vessels; 3: intense iridal hyperemia with flare in the anterior chamber; 4: intense iridal hyperemia with flare in the anterior chamber and presence of fibrinous exudates. Particulars: for Clinical Score −5 min: 5 min before first paracentesis; for Clinical Score −5 min / Clinical Score +115 min / Clinical Score −180 min: individual eye, scale 0-4; for Clinical Score +115 min: 5 min before second paracentesis; for Clinical Score −180 min: basal.

A further test deals with PGE2. Kind of test: Prostaglandin E2 (PGE2) measurement in aqueous humor. Format: in vivo, Rabbit. Particulars: for PGE2 in aqueous humor at the second paracentesis, Mean: group mean; for PGE2 in aqueous humor at the second paracentesis: individual eye sample. How it is done: as §1
For the quantitative determination of PGE2 in the aqueous humor we used the PGE2 Immunoassay kit (R&D Systems; Cat. No. KGE004; Lot. No. 240010). Eleven microliters or 16 μl of aqueous humor were diluted to 110 μl or 160 μl with the calibrator diluent solution provided with the kit. One hundred microliters of samples and of standards were load into a 96-well plate and recorded in a plate layout. Samples were treated following the assay procedure described in the kit. A microplate reader (GDV, Italy; model DV 990 B/V6) set at 450 nm (wavelength correction at 540 nm) was used for making the calibration and analyzing the samples.

The subject of test [3] is protein concentration in the aqueous humor. Put plainly: Protein measurement in aqueous humor. Particulars: for Protein in aqueous humor at the second paracentesis, Mean: group mean; for Protein in aqueous humor at the second paracentesis: individual eye sample. Type of test: in vivo, Rabbit. The procedure: as §1
For protein concentration determination in the aqueous humor we used the Protein Quantification Kit (Fluka; Cat. No. 77371; Lot. No. 1303129). Five microliters of aqueous humor were diluted to 100 μl with water. Twenty microliters of samples and of standards were load into a 96-well plate and recorded in a plate layout. Samples were treated following the assay procedure described in the kit. A microplate reader (GDV, Italy; model DV 990 B/V6) set at 670 nm was used for making the calibration and analyzing the samples.

A further test deals with leukocytes (PMN). Kind of test: Leukocytes (PMN) measurement in aqueous humor. Format: in vivo, Rabbit. To be noted: for PMN in aqueous humor at the second paracentesis, Mean: group mean; for PMN in aqueous humor at the second paracentesis: individual eye sample. How it is done: as §1
For the determination of the number of leukocytes we used a haemocytometer (Improved Neubauer Chamber; Brigth-line, Hausser Scientific) and a Polyvar 2 microscope (Reichert-Jung).

The test system of another test is MPO. Put plainly: Myeloperoxidase (MPO) activity in iris-ciliary body. Type of test: in vivo, Rabbit. To be noted: for Mean MPO Unit/g (MPO activity in iris-ciliary body samples): group mean, after the second paracentesis; for MPO Unit/g (raw data of MPO activity in iris-ciliary body samples): individual eyes (DX/SX) of rabbits, samples collected after the second paracentesis. How it is done: 2.3.2.1 Phosphate Buffer (50 mM; pH=6)
3.9 g of NaH2PO4 2H2O were dissolved in a volumetric flask to 500 ml with water. The pH was adjusted to pH=6 with 3N NaOH.
0.5 g of hexa-decyl-trimethyl-ammonium bromide was dissolved in 100 ml phosphate buffer.
The solution was prepared freshly. Ten microliters of H2O2 (30 wt. %) were diluted to 1 ml with water (solution A). 7.5 mg o-dianisidine 2HCl were dissolved in 45 ml of phosphate buffer and 75 μl of solution A were added.
as §1
The activity of MPO was measured as previously described by Williams et al. The iris-ciliary bodies were carefully dried, weighed and immersed in 1 ml of hexa-decyl-trimethyl-ammonium bromide solution. Then, the samples were sonicated for 10 sec on ice by a ultrasound homogenizer (HD 2070, Bandelin electronic), freeze-thawed three times, sonicated for 10 sec and centrifuged at 14,000 g for 10 min to remove cellular debris. An aliquot of the supernatant (40-200 μl) was diluted to 3 ml with the o-dianisidine 2HCl/H2O2 solution. The change in absorbance at 460 nm was continuously monitored for 5 min by a spectrophotometer (UV/Vis Spectrometer Lambda EZ 201; Perkin Elmer). The slope of the line (Δ/min) was determined for each sample and used to calculate the number of units of MPO in the tissue as follows:
where ε=11.3 mM^−1. Values were expressed as units of MPO/g of tissue.

For the molecule `C[C@@H]1C[C@H]2[C@@H]3CCC4=CC(=O)C=C[C@]4(C)[C@@]3(F)[C@@H](O)C[C@]2(C)[C@@]1(O)C(=O)CO` [Dex, Dexamethasone, reference compound], in test [1] (0.1% topical), the “Pupillary diameter T2: −5 min” value was 5.5 mm and 6.5 mm (3×) and 6.0 mm (2×) and 7.0 mm and 7.5 mm; the “Pupillary diameter T3: +115 min” value is 5.5 mm (3×) and 6.0 mm (2×) and 4.5 mm and 5.0 mm and 6.5 mm; the “Pupillary diameter Δ(T3 − T1)” value was −0.5 mm (3×) and −1.5 mm (2×) and 0.5 mm and 0.0 mm and −2.0 mm; the “Pupillary diameter T1: −180 min” value is 6.0 mm and 7.0 mm (2×) and 5.5 mm (2×) and 6.5 mm (3×). Also, in test [2] (0.1% topical), the “Clinical Score −5 min” value is 0 (6×) and 1 (2×); the “Clinical Score +115 min” value is 1 (6×) and 3 (2×); the “Clinical Score −180 min” value is given as 0. In test [2] (0.1% topical, +115 min, 8 eyes), the “Percentage of eyes with clinical score 1” value was 75% and the “Percentage of eyes with clinical score 3” value is 25%. Also, in test [2] (0.1% topical, −5 min, 8 eyes), the “Percentage of eyes with clinical score 0” value was determined as 75% and the “Percentage of eyes with clinical score 1” value is reported as 25%. Further, the “Percentage of eyes with clinical score 0” value in test [2] (0.1% topical, −180 min, 8 eyes) was 100%. For the same molecule, in the test with PGE2 (0.1% topical), the “PGE2 in aqueous humor at the second paracentesis, Mean” value was 2.263 ng/mL; the “PGE2 in aqueous humor at the second paracentesis” value is 2.51 ng/ml and 2.32 ng/ml (2×) and 2.10 ng/ml and 3.03 ng/ml and 1.30 ng/ml. In test [3] (0.1% topical), the “Protein in aqueous humor at the second paracentesis, Mean” value was determined as 33.457 mg/mL; the “Protein in aqueous humor at the second paracentesis” value was 31.31 mg/mL and 31.81 mg/mL and 35.95 mg/mL and 37.15 mg/mL and 32.12 mg/mL and 32.40 mg/mL. Further, in the test with leukocytes (PMN) (0.1% topical), the “PMN in aqueous humor at the second paracentesis, Mean” value came to 30.000 number/μl; the “PMN in aqueous humor at the second paracentesis” value is 20 number/μl (3×) and 50 number/μl and 40 number/μl and 30 number/μl. For the same molecule, in the test with MPO (0.1% treatment), the “Mean MPO Unit/g (MPO activity in iris-ciliary body samples)” value came out at 0.618 Unit/g; the “MPO Unit/g (raw data of MPO activity in iris-ciliary body samples)” value was 0.71 Unit/g and 0.60 Unit/g and 1.32 Unit/g and 0.48 Unit/g (2×) and 0.39 Unit/g and 0.45 Unit/g and 0.51 Unit/g.
For `CC(C(=O)O)c1ccc(-c2ccccc2)c(F)c1` (centres unmarked) [F, flurbiprofen, reference compound], in test [1] (0.03% topical), the “Pupillary diameter T2: −5 min” value is 6.0 mm (3×) and 6.5 mm (3×) and 7.0 mm and 5.5 mm; the “Pupillary diameter T3: +115 min” value is 4.0 mm and 3.5 mm and 5.5 mm (2×) and 5.0 mm (2×) and 4.5 mm and 6.0 mm; the “Pupillary diameter Δ(T3 − T1)” value is −1.0 mm (3×) and −1.5 mm (3×) and 0.0 mm (2×); the “Pupillary diameter T1: −180 min” value is 5.0 mm (2×) and 7.0 mm and 6.0 mm (4×) and 5.5 mm. For the same molecule, in test [2] (0.03% topical), the “Clinical Score −5 min” value is recorded as 0, the “Clinical Score +115 min” value is on record as 2 and the “Clinical Score −180 min” value was 0. For the same molecule, the “Percentage of eyes with clinical score 2” value in test [2] (0.03% topical, +115 min, 8 eyes) is 100%. For the same molecule, the “Percentage of eyes with clinical score 0” value in test [2] (0.03% topical, −5 min, 8 eyes) is on record as 100%. Further, the “Percentage of eyes with clinical score 0” value in test [2] (0.03% topical, −180 min, 8 eyes) turned out to be 100%. Moreover, in the test on PGE2 (0.03% topical), the “PGE2 in aqueous humor at the second paracentesis, Mean” value is 1.189 ng/mL; the “PGE2 in aqueous humor at the second paracentesis” value is 1.04 ng/ml and 0.75 ng/ml and 0.85 ng/ml and 1.11 ng/ml and 2.11 ng/ml (2×) and 0.93 ng/ml and 0.61 ng/ml. Moreover, the “PGE2 in aqueous humor, statistical comparison with CTR” value in the test on PGE2 (0.03% topical, p<0.05) is “statistically significant versus CTR”. In addition, in test [3] (0.03% topical), the “Protein in aqueous humor at the second paracentesis, Mean” value stood at 20.910 mg/mL; the “Protein in aqueous humor at the second paracentesis” value is 20.78 mg/mL and 28.80 mg/mL and 23.41 mg/mL and 20.21 mg/mL and 17.53 mg/mL and 15.12 mg/mL and 20.52 mg/mL. Also, the “Protein in aqueous humor, statistical comparison with CTR” value in test [3] (0.03% topical, p<0.001) is “statistical significance”. In the test with leukocytes (PMN) (0.03% topical), the “PMN in aqueous humor at the second paracentesis, Mean” value amounted to 30.000 number/μl; the “PMN in aqueous humor at the second paracentesis” value was 50 number/μl and 40 number/μl (2×) and 20 number/μl (2×) and 10 number/μl and 30 number/μl. The “MPO activity in iris-ciliary body, statistical comparison with CTR” value in the test with MPO (0.03% topical, p<0.01) is on record as “statistical significance”. In the test with MPO (0.03% treatment), the “Mean MPO Unit/g (MPO activity in iris-ciliary body samples)” value was 0.906 Unit/g; the “MPO Unit/g (raw data of MPO activity in iris-ciliary body samples)” value is 1.10 Unit/g and 1.70 Unit/g and 0.34 Unit/g and 0.75 Unit/g and 0.74 Unit/g and 0.63 Unit/g and 0.73 Unit/g and 1.27 Unit/g.
